# Results taken from ChEMBL document CHEMBL3272295, “Drugs derived from cannabinoids. 5. delta6a,10a-Tetrahydrocannabinol and heterocyclic analogs containing aromatic side chains” (J Med Chem, 1976).
# Active and inactive are the calls of the source. The calls are words filed in the database; no cut-off is given here.
# Columns and labels:
# Rattus norvegicus [1] = test: Antianxiety activity in Long-Evans rat assessed as reduction in motor activity at 20 mg/kg, po after 2 hrs relative to vehicle-treated control; type: functional; design: scale not given: the % may be the effect or the level left
# Rattus norvegicus [2] = test: Antihypertensive activity in spontaneously hypertensive rat model assessed as reduction in blood pressure at 10 mg/kg, po after 24 hrs; type: functional; design: scale not given: the % may be the effect or the level left
# Rattus norvegicus [3] = test: Increase in pepsin output in Sprague-Dawley rat at 50 mg/kg, po administered 30 mins prior to pylorus ligation measured after 4 hrs relative to control; type: functional
# Felis catus [4] = test: Hypnotic activity in cat assessed as decrease in non-REM sleep time at 4 mg/kg administered orally through diet measured for 12 hrs by EEG analysis; type: functional; conditions: route oral
# Felis catus [5] = test: Hypnotic activity in cat assessed as increase in total sleep time at 1 mg/kg administered orally through diet measured for 12 hrs by EEG analysis; type: functional; conditions: route oral
# Felis catus [6] = test: Hypnotic activity in cat assessed as increase in non-REM sleep time at 1 mg/kg administered orally through diet measured for 12 hrs by EEG analysis; type: functional; conditions: route oral
# Mus musculus [7] = test: Antianxiety activity in albino BALB/cJ mouse assessed as reduction in footshock-induced fighting behavior at 10 mg/kg, po after 30 to 90 mins; type: functional; design: scale not given: the % may be the effect or the level left
# Rattus norvegicus [8] = test: Antihypertensive activity in spontaneously hypertensive rat model assessed as reduction in blood pressure at 25 mg/kg, po after 3 hrs; type: functional; design: scale not given: the % may be the effect or the level left
# Rattus norvegicus [9] = test: Antianxiety activity in Long-Evans rat assessed as reduction in motor activity at 5 mg/kg, po after 2 hrs relative to vehicle-treated control; type: functional; design: scale not given: the % may be the effect or the level left
# Mus musculus [10] = test: Antidepressant activity in mouse assessed as potentiation of DOPA-induced effect at 5 mg/kg, po administered 4 hrs prior to DOPA challenge; type: functional, organism-based; design: dose 5 mg/kg
# Rattus norvegicus [11] = test: Antisecretory activity in Sprague-Dawley rat assessed as decrease in acid output at 50 mg/kg, po administered 30 mins prior to pylorus ligation measured after 4 hrs relative to control; type: functional; design: scale not given: the % may be the effect or the level left
# Rattus norvegicus [12] = species: Rattus norvegicus; test: animal or person; type: functional; conditions: Charles River, route oral
# Description: Antidiarrheal activity in Charles River rat assessed as inhibition of castor oil-induced diarrhea by measuring protected animals at 0.5 mg/kg, po administered 1 hr prior to castor oil challenge measured after 1 hr relative to vehicle-treated control
# Rattus norvegicus [13] = test: Antihypertensive activity in spontaneously hypertensive rat model assessed as reduction in blood pressure at 10 mg/kg, po after 3 hrs; type: functional; design: scale not given: the % may be the effect or the level left
# Rattus norvegicus [14] = test: Increase in pepsin concentration in Sprague-Dawley rat at 50 mg/kg, po administered 30 mins prior to pylorus ligation measured after 4 hrs relative to control; type: functional
# Rattus norvegicus [15] = test: Antisecretory activity in Sprague-Dawley rat assessed as decrease in acidity at 50 mg/kg, po administered 30 mins prior to pylorus ligation measured after 4 hrs relative to control; type: functional; design: scale not given: the % may be the effect or the level left
# Rattus norvegicus [16] = test: Antipsychotic activity in rat assessed as reduction of methamphetamine-induced hyperactivity at 10 mg/kg, po administered prior to methamphetamine challenge relative to vehicle-treated control; type: functional; design: scale not given: the % may be the effect or the level left
# Rattus norvegicus [17] = test: Increase in volume in Sprague-Dawley rat at 50 mg/kg, po administered 30 mins prior to pylorus ligation measured after 4 hrs relative to control; type: functional
# Felis catus [18] = test: Hypnotic activity in cat assessed as increase in total sleep time at 4 mg/kg administered orally through diet measured for 12 hrs by EEG analysis; type: functional; conditions: route oral
# [19] = Acute toxicity in po dosed mouse; type: organism-based; conditions: in vivo
# Canis familiaris = test: Antianxiety activity in po dosed dog assessed as ataxia administered as single dose measured up to 24 hrs; type: functional; conditions: Canis lupus familiaris, read-out: MED
# Rattus norvegicus [20] = test: Antipsychotic activity in rat assessed as reduction of methamphetamine-induced hyperactivity at 5 mg/kg, po administered prior to methamphetamine challenge relative to vehicle-treated control; type: functional; design: scale not given: the % may be the effect or the level left
# Mus musculus [21] = test: Anticonvulsant activity in po dosed mouse assessed as dose required to protect 80% of animal measured after 1 to 4 hrs by audiogenic seizure test; type: functional
# Rattus norvegicus [22] = test: Antihypertensive activity in spontaneously hypertensive rat model assessed as reduction in blood pressure at 25 mg/kg, po after 24 hrs; type: functional; design: scale not given: the % may be the effect or the level left
# Rhesus monkey = test: Antianxiety activity in po dosed rhesus monkey assessed as antiagressive behavior measured every hour post dosing; type: functional; conditions: Macaca mulatta, read-out: MED
# Mus musculus [23] = test: Analgesic activity in po dosed mouse assessed as inhibition of acetic acid-induced writhing administered 30 mins prior to acetic acid challenge measured after 5 mins for 20 mins; type: functional
# Rattus norvegicus [24] = test: Antiulcer activity in albino Sprague-Dawley rat stress ulcer model assessed as prevention of stress-induced gastric lesions by measuring ulcer index score at 10 mg/kg, po administered 30 mins prior to stress measured after 4 hrs; type: functional, Stomach
# Rattus norvegicus [25] = test: Antianxiety activity in Long-Evans rat assessed as reduction in motor activity at 4 mg/kg, po after 2 hrs relative to vehicle-treated control; type: functional; design: scale not given: the % may be the effect or the level left
# Rattus norvegicus [26] = test: Antianxiety activity in Long-Evans rat assessed as reduction in motor activity at 1 mg/kg, po after 2 hrs relative to vehicle-treated control; type: functional; design: scale not given: the % may be the effect or the level left
# Rattus norvegicus [27] = test: Analgesic activity in po dosed Sprague-Dawley rat after 15 to 90 mins by tail flick test; type: functional
# Rattus norvegicus [28] = test: Antiulcer activity in albino Sprague-Dawley rat reserpine ulcer model assessed as prevention of reserpine-induced gastric lesions by measuring ulcer index scores at 10 mg/kg, po administered 30 mins prior to reserpine challenge measured after 6 hrs; type: functional; conditions: Stomach
# Felis catus [29] = test: Hypnotic activity in cat assessed as decrease in non-REM sleep time at 0.5 mg/kg administered orally through diet measured for 12 hrs by EEG analysis; type: functional; conditions: route oral
# Felis catus [30] = test: Hypnotic activity in cat assessed as increase in total sleep time at 0.5 mg/kg administered orally through diet measured for 12 hrs by EEG analysis; type: functional; conditions: route oral
# Rattus norvegicus [31] = test: Antiulcer activity in albino Sprague-Dawley rat stress ulcer model assessed as prevention of stress-induced gastric lesions by measuring ulcer index score at 40 mg/kg, po administered 30 mins prior to stress measured after 4 hrs; type: functional, Stomach
# Rattus norvegicus [32] = test: Antiulcer activity in albino Sprague-Dawley rat shay ulcer model assessed as ulcer index scores at 20 mg/kg administered intraduodenally post pyloric ligation measured after 18.5 hrs relative to vehicle-treated control; type: functional
# Rattus norvegicus [33] = test: Antihypertensive activity in spontaneously hypertensive rat model assessed as reduction in blood pressure at 0.3 mg/kg, po after 3 hrs; type: functional; design: scale not given: the % may be the effect or the level left
# Felis catus [34] = test: Hypnotic activity in cat assessed as increase in non-REM sleep time at 0.25 mg/kg administered orally through diet measured for 12 hrs by EEG analysis; type: functional; conditions: route oral
# Rattus norvegicus [35] = test: Antisecretory activity in Sprague-Dawley rat assessed as decrease in pepsin output at 50 mg/kg, po administered 30 mins prior to pylorus ligation measured after 4 hrs relative to control; type: functional; design: scale not given: the % may be the effect or the level left
# Rattus norvegicus [36] = test: Antisecretory activity in Sprague-Dawley rat assessed as decrease in volume at 50 mg/kg, po administered 30 mins prior to pylorus ligation measured after 4 hrs relative to control; type: functional; design: scale not given: the % may be the effect or the level left
# Rattus norvegicus [37] = test: Antiulcer activity in albino Sprague-Dawley rat reserpine ulcer model assessed as prevention of reserpine-induced gastric lesions by measuring ulcer index scores at 50 mg/kg, po administered 30 mins prior to reserpine challenge measured after 6 hrs; type: functional, Stomach
# Rattus norvegicus [38] = test: Antipsychotic activity in rat assessed as reduction of methamphetamine-induced hyperactivity at 20 mg/kg, po administered prior to methamphetamine challenge relative to vehicle-treated control; type: functional; design: scale not given: the % may be the effect or the level left
# Felis catus [39] = test: Hypnotic activity in cat assessed as increase in total sleep time at 0.25 mg/kg administered orally through diet measured for 12 hrs by EEG analysis; type: functional; conditions: route oral
# Rattus norvegicus [40] = test: Antiulcer activity in albino Sprague-Dawley rat shay ulcer model assessed as ulcer index scores at 50 mg/kg administered intraduodenally post pyloric ligation measured after 18.5 hrs relative to vehicle-treated control; type: functional; conditions: route intraduodenal
# Rattus norvegicus [41] = test: Antihypertensive activity in spontaneously hypertensive rat model assessed as reduction in blood pressure at 0.3 mg/kg, po after 24 hrs; type: functional; design: scale not given: the % may be the effect or the level left
smiles,measurement,setting,value
CCCCCc1cc(O)c2c(c1)OC(C)(C)[C@@H]1CCC(C)=C[C@@H]21 [DRONABINOL],Activity,Rattus norvegicus [1],72%
same,Activity,Rattus norvegicus [2],8%
same,Activity,Rattus norvegicus [3],8.9%
same,Time,Felis catus [4],-3 min
same,Time,Felis catus [5],29 min
same,Time,Felis catus [6],1 min
same,Activity,Mus musculus [7],68%
same,Activity,Rattus norvegicus [8],39%
same,Activity,Rattus norvegicus [9],14%
same,Activity,Mus musculus [10],Active
same,Activity,Rattus norvegicus [11],7.3%
same,inhibition in vivo at 0.5 mg/kg,Rattus norvegicus [12],0%
same,Activity,Rattus norvegicus [13],6%
same,Activity,Rattus norvegicus [14],8.2%
same,Activity,Rattus norvegicus [15],7.5%
same,Activity,Rattus norvegicus [16],41%
same,Activity,Rattus norvegicus [17],0.7%
same,Time,Felis catus [18],17 min
same,LD50,[19],≥ 1000 mg/kg
same,minimal effective dose,Canis familiaris,0.5 mg/kg
same,Activity,Rattus norvegicus [20],15%
same,Activity,Mus musculus [21],20 mg/kg
same,Activity,Rattus norvegicus [22],21%
same,minimal effective dose,Rhesus monkey,1 mg/kg
same,ED50,Mus musculus [23],43 mg/kg
C#CCN1CCC2=C(C1)c1c(O)cc(C(C)CCCc3ccc(F)cc3)cc1OC2(C)C (stereo not drawn),UI,Rattus norvegicus [24],1.7
same,Activity,Rattus norvegicus [2],15%
same,Activity,Rattus norvegicus [25],77%
same,Activity,Rattus norvegicus [26],60%
same,ED50,Rattus norvegicus [27],3.7 mg/kg
same,Activity,Rattus norvegicus [28],inactive
same,Activity,Mus musculus [7],47%
same,Time,Felis catus [29],-20 min
same,Activity,Rattus norvegicus [11],42.9%
same,Time,Felis catus [30],99 min
same,UI,Rattus norvegicus [31],1.4
same,inhibition in vivo at 0.5 mg/kg,Rattus norvegicus [12],53%
same,Activity,Rattus norvegicus [13],30%
same,Activity,Rattus norvegicus [32],Active
same,Activity,Rattus norvegicus [33],22%
same,Activity,Rattus norvegicus [15],12.8%
same,Time,Felis catus [34],45 min
same,Activity,Rattus norvegicus [16],8%
same,Activity,Rattus norvegicus [35],22.2%
same,LD50,[19],≥ 1000 mg/kg
same,minimal effective dose,Canis familiaris,1 mg/kg
same,Activity,Rattus norvegicus [36],33.3%
same,UI,Rattus norvegicus [37],1.5
same,Activity,Rattus norvegicus [38],34%
same,Time,Felis catus [39],45 min
same,UI,Rattus norvegicus [40],1.3
same,ED50,Mus musculus [23],5.3 mg/kg
same,Activity,Rattus norvegicus [41],15%
